The numbers were not newly measured in patent publication US20140271529A1, “ANTIFUNGAL COMPOSITIONS FOR THE TREATMENT OF SECONDARY SKIN AND NAIL INFECTIONS” (ALC Therapeutics, LLC, priority 2013, published 2014), which cites them from elsewhere.

The conditions of data set [1]: 14C-labelled griseofulvin dissolved in the solvent; human skin in vitro.
The conditions of data set [2]: human, in vivo.

Take `CCO` [alcohol]: the “ratios of penetration of griseofulvin in the various solvents” value (from here on “ratios of penetration of griseofulvin”) in data set [1] is 3. As to `CN(C)C=O` [dimethylformamide], in data set [1], the “ratios of penetration of griseofulvin” value is 7. Consider `c1ccccc1` [benzene], for which the “ratios of penetration of griseofulvin” value in data set [1] was 1. Take `C[S+](C)[O-]` [DMSO, dimethylsulfoxide]: the “ratios of penetration of griseofulvin” value in data set [1] was 60. As for panitumumab, the “acute paronychia, patients affected” value in data set [2] was not above 45%.
